Test results from patent US4942154A, “Steroidal glycolipids as host resistance stimulators against viral infection” (priority 1987, dated 1990).

Assays:
[1] = test system: Pseudomonas aeruginosa; test: Pseudomonas aeruginosa in vivo protection study in cyclophosphamide-treated mice; design: species or system CF1 female mice; conditions: for LD50 Actual: PA, CY +
Experimental: (§1) Groups of 15-20 CF1 female mice (Charles River Breeding, Cambridge, Mass.) weighing 22-28 gm were injected intraperitoneally (i.p.) with cyclophosphamide (Cytoxan; CY) at 250 mg per kg body weight. One to two hours later they were typically injected again with the test material by the route specified. Four days later, the mice were divided into groups of five, each of which were injected i.p. with a different dilution of a suspension of Pseudomonas aeruginosa (Immunotype 1). The number of survivors was determined periodically and an estimate was made of the number of CFU of Pseudomonas organisms necessary to cause 50% lethality by the cumulative method of L. J. Reed and H. Muench (Am. J. Hygiene 27 (1938) 493-497). A protective index (P.I.) was defined as the LD50 for the mice receiving cyclophosphamide and the test compound divided by the LD50 for the mice receiving cyclophosphamide alone. All control mice were injected with aqueous vehicle in the same route and schedule as the test animals.
(§2) MATERIALS. All compounds for dosing were suspended in a sterile medium referred to as "aqueous vehicle" which contains 0.9% sodium chloride, 0.5% carboxymethyl cellulose, 0.4% Tween 80, and 0.9% benzyl alcohol unless otherwise stated. Test materials were evaluated via subcutaneous (s.c.), i.p., intramuscular (i.m.), orally (p.o.). and intravenous (i.v.) routes of administration. […]
(§3) INFECTION OF ANIMALS. All bacteria were inoculated i.p. to induce infection in the in vivo experiments. Candida albicans, however, was administrated i.v. Bacteria cultures were harvested in the log phase, washed with phosphate buffered saline (PBS, and resuspended in PBS containing 10% glycerol for freezing at -70° C. in 1 ml aliquots. The number of […] (cfu's) was determined before and after freezing. Frozen cultures were routinely thawed and diluted in sterile PBS just prior to inoculation. Viable cell counts were routinely done on thawed cultures the day of challenge to determine the number of cfu's. Candida albicans was stored in distilled water at room temperature. Viable cell counts were determined the day of testing.
(§4) The testing and results of 6-(5-cholesten-3β-yloxy)hexyl-1-thio-β-D-mannopyranoside (Example 2) against various organisms is shown in Table 2.

[2] = test system: Mycobacterium aviumintracellulare; conditions: AIDS patients; cited from earlier work
[3] = in vivo; cited from earlier work
[4] = test system: AIDS / AIDS-related complex (ARC); conditions: human, in vivo; cited from earlier work
[5] = cited from earlier work; for adverse effects, toxicity, tolerability: clinical
[6] = test system: HIV; conditions: cited from earlier work
[7] = test system: Staphylococcus aureus; test: In vivo protection from Staphylococcus aureus infection in cyclophosphamide-treated mice; design: species or system CF1 female mice; conditions: SA, CY +
Experimental: as §1
MATERIALS. All compounds for dosing were suspended in a sterile medium referred to as "aqueous vehicle" which contains 0.9% sodium chloride, 0.5% carboxymethyl cellulose, 0.4% Tween 80, and 0.9% benzyl alcohol unless otherwise stated. Test materials were evaluated via subcutaneous (s.c.), i.p., intramuscular (i.m.), orally (p.o.). and intravenous (i.v.) routes of administration. The initial test dose was 40 mg per kg per mouse, with each active compound subsequently titrated below this level.
as §3, §4

[8] = test system: Candida albicans; test: In vivo protection from Candida albicans infection in cyclophosphamide-treated mice; design: species or system CF1 female mice; conditions: CA, CY +
Experimental: as §1, §2
as §3, with “All bacteria were inoculated i.p. to induce infection in the in vivo experiments.” left out, “testing. […]” for “testing.”

[9] = test system: Herpes Simplex Virus-1 (HSV1); test: Antiviral experiment in mice infected IP with Herpes Simplex Virus-1; type: in vivo, ICR mice; conditions: for Average Day of Death, Pre Treatment: HSV1 day 5; for Average Day of Death, Post Treatment: HSV1 prior to treatment
Experimental: An antiviral experiment was conducted to compare treatment with 6-(5-Cholesten-3β-yloxy)hexyl 1-thio-β-D-mannopyranoside (Example 2) in mice infected IP with Herpes Simplex Virus-1 (HSV1) immediately before (post treatment) or after 5 days of treatment (pretreatment).
Ten mice (ICR, 20 gm, mixed sexes) were pretreated by SC injection of a 0.1 mL suspension of test compound twice a day for 4 days. On day 5, the mice were injected IP with 0.5 mL solution of HSV1 (Schloser, 10-5). The post treatment group was infected with HSV1 prior to administration of test compound. Day of death from time of infection with HSV1 was recorded for each mouse and average day of death per treatment group was calculated.

[10] = test system: Klebsiella pheumoniae; test: In vivo protection from Klebsiella infection in cyclophosphamide-treated mice; design: species or system CF1 female mice; conditions: KP; CY +; 40 mg/kg
Experimental: as §1, §2

[11] = test system: HIV reverse transcriptase; conditions: cited from earlier work
[12] = test system: reverse transcriptase in several retroviruses; conditions: in vitro; cited from earlier work
[13] = test system: AIDS-related Kaposi's sarcoma; conditions: cited from earlier work

For “6-(20S-Amino-pregn-5-en-3β-yloxy)hexyl 1-thio-β-D-mannopyranoside [Example 14]”, the “Protective Index (log)” value ([1]; Table 3, Pseudomonas aeruginosa, cyclophosphamide-treated mice, dose not given) was 4.37 log.
For `CO[C@H]1/C=C/O[C@@]2(C)Oc3c(C)c(O)c4c(c3C2=O)C2=NC3(CCN(CC(C)C)CC3)NC2=C(NC(=O)/C(C)=C\C=C\[C@H](C)[C@H](O)[C@@H](C)[C@@H](O)[C@@H](C)[C@H](OC(C)=O)[C@@H]1C)C4=O` [Ansamycin, rifabutin], the “efficacy in opportunistic infection” value [2] is listed as “some efficacy”.
In the case of `Cc1cn([C@H]2C[C@H](N=[N+]=[N-])[C@@H](CO)O2)c(=O)[nH]c1=O` [Azidothymidine, 3'-azido-3'-deoxythymidine], the “central nervous system penetration” value [3] is listed as “effectively penetrates central nervous system” and the “clinical effect in AIDS / ARC patients” value [4] is listed as “First drug to show promise in prolonging lives of patients with AIDS or AIDS-related complex (ARC)”.
In the case of `CC(C)(N1CC1C#N)N1CC1C(N)=O` (stereo not shown) [Azimexon], the “clinical effect in AIDS / ARC patients” value [4] is given as “improvements in symptoms and immune function in patients with ARC but not AIDS” and the “adverse effects, toxicity, tolerability” value [5] is given as “only toxic effect was mild hemolysis”.
In the case of `CC(C)(S)[C@@H](N)C(=O)O` [D-Penicillamine, 3-mercapto-D-valine], the “clinical effect in AIDS / ARC patients” value [4] is given as “suppressed the virus”, the T cell levels ([5]; 13 AIDS patients with perpetually swollen glands) is given as “temporarily depressed T cell levels” and the “effect on HIV infectivity, growth or reproduction” value (shortened to “effect on HIV infectivity”) [6] is given as “Inhibits HIV reproduction in humans”.
With `CC(C)CCC[C@@H](C)[C@H]1CC[C@H]2[C@@H]3CC=C4C[C@@H](OCCCCCCS[C@@H]5O[C@H](CO)[C@@H](O)[C@H](O)[C@@H]5O)CC[C@]4(C)[C@H]3CC[C@]12C` [Example 2, 6-(5-Cholesten-3β-yloxy)hexyl 1-thio-β-D-mannopyranoside] the “LD50 Actual” value ([7]; 5 mg/kg) was 3.38 × 10^5 CFU, the “LD50 Actual” value ([7]; 10 mg/kg) was 1.04 × 10^6 CFU and the “LD50 Actual” value ([7]; 20 mg/kg) was 2.38 × 10^6 CFU. For the same compound, the “LD50 Actual” value ([7]; 40 mg/kg) was 1.58 × 10^7 CFU, the “LD50 Actual” value ([8]; 10 mg/kg) was 3.68 × 10^4 CFU and the “LD50 Actual” value ([8]; 20 mg/kg) was 5.2 × 10^4 CFU. The “LD50 Actual” value ([8]; 40 mg/kg) was 7.88 × 10^4 CFU, the “Average Day of Death, Pre Treatment” value ([9]; 0.8 mg/kg SC twice a day for 4 days, P 0.797) was 8.6 days and the “Average Day of Death, Post Treatment” value ([9]; 0.8 mg/kg SC twice a day) was 9.1 days. For the same compound, the “Average Day of Death, Pre Treatment” value ([9]; 3.1 mg/kg SC twice a day for 4 days, P 0.348) was 7.1 days, the “Average Day of Death, Post Treatment” value ([9]; 3.1 mg/kg SC twice a day) was 6.3 days and the “Average Day of Death, Pre Treatment” value ([9]; 12.5 mg/kg SC twice a day for 4 days, P 0.725) was 8.0 days. The “Average Day of Death, Post Treatment” value ([9]; 12.5 mg/kg SC twice a day) was 7.5 days, the “Average Day of Death, Pre Treatment” value ([9]; 50 mg/kg SC twice a day for 4 days, P 0.003) was 11.0 days and the “Average Day of Death, Post Treatment” value ([9]; 50 mg/kg SC twice a day) was 6.4 days. For the same compound, the “protection from fatal viral infection over placebo” value ([9]; 50 mg/kg twice a day for four days, by day of death) was “statistically enhanced protection from fatal viral infection over placebo treated animals”, the “protection, pretreated over post treatment group” value ([9]; pretreated mice versus post treatment group) was “statistically enhanced protection over the post treatment group” and the “LD50 Actual” value ([1]; 10 mg/kg) was 3.2 × 10^4 CFU. The “LD50 Actual” value ([1]; 20 mg/kg) was 3.2 × 10^5 CFU, the “LD50 Actual” value ([1]; 40 mg/kg) was 1.22 × 10^6 CFU and the “LD50 Actual” value ([1]; 80 mg/kg) was 2.59 × 10^6 CFU. The “LD50 Actual” value [10] was 4.73 × 10^7 CFU and the “P.I. (log)” value [10] was 1.12 log.
In the case of `O=C(O)P(=O)(O)O` [Foscarnet, trisodium phosphonoformate], the “HIV reverse transcriptase inhibition” value [11] is listed as “Inhibits HIV reverse transcriptase activity in vitro at levels pharmacologically acceptable in vivo” and the “adverse effects, toxicity, tolerability” value [5] is listed as “serious side effects”.
In the case of `CC(=O)Nc1ccc(C(=O)O)cc1.CC(=O)Nc1ccc(C(=O)O)cc1.CC(=O)Nc1ccc(C(=O)O)cc1.CC(O)CN(C)C.CC(O)CN(C)C.CC(O)CN(C)C.O=c1[nH]cnc2c1ncn2[C@@H]1O[C@H](CO)[C@@H](O)[C@H]1O` [Inosine pranobex, p-Acetamidobenzoic acid salt of (1-dimethylamino-2-propanol:inosinate complex 3:3:1 molar ratio)], the “clinical effect in AIDS / ARC patients” value [4] is given as “improve immune function in ARC patients”.
For `NC(=O)c1ncn([C@@H]2O[C@H](CO)[C@@H](O)[C@H]2O)n1` [Ribavirin, 1-β-D-ribofuranosyl-1,2,4-triazole-3-carboxamide], the “clinical effect in AIDS / ARC patients” value [4] is listed as “inhibited viral replication and improved immune function in AIDS patients”.
For `Cc1ccc(C(=O)Nc2ccc(S(=O)(=O)O)c3cc(S(=O)(=O)O)cc(S(=O)(=O)O)c23)cc1NC(=O)c1cccc(NC(=O)Nc2cccc(C(=O)Nc3cc(C(=O)Nc4ccc(S(=O)(=O)O)c5cc(S(=O)(=O)O)cc(S(=O)(=O)O)c45)ccc3C)c2)c1` [Suramin], the “clinical effect in AIDS / ARC patients” value [4] is given as “little or no evidence of clinical improvement or immunologic recovery” and the “HIV reverse transcriptase inhibition” value [11] is given as “Potent inhibitor of HIV reverse transcriptase”.
In the case of “ammonium 21-tungsto-9-antimoniate [HPA-23]”, the “clinical effect in AIDS / ARC patients” value [4] is given as “no therapeutic benefit has been documented in AIDS patients”, the “reverse transcriptase inhibition in retroviruses” value [12] is given as “Inhibits reverse transcriptase in several retroviruses in vitro” and the “effect on HIV infectivity” value [6] is given as “some tendency to check the growth of HIV”.
In the case of α-Interferon, the tumor regression [13] is given as “induced tumor regression in some AIDS-related Kaposi's sarcoma cases” and the “effect on HIV infectivity” value [6] is given as “Checks the growth of HIV in vitro”.
